# Reference: patent publication US20160333404A1, “METHODS FOR TREATING HCV” (priority 2012, published 2016)
# How the values were obtained:
# [1] = tested on: miR-122; assay: Serum miR-122 expression by microRNA real-time PCR, Example 2, 3 days polymerase inhibitor monotherapy then with P/R; type: in vivo, human; conditions: treatment-naïve GT1 subjects, day 3 vs day 1
# Experimental: Sample preparation and microRNA real-time PCR. Serum samples were collected at baseline (“BASE”), week 2 on-treatment (“W2”), week 10 on-treatment (“W10”), and 8 weeks after completing the 12 week regimen (“Post Week 8”) and frozen until analysis. Total RNA was extracted from serum using the Qiagen miRNeasy® Mini Kit. Serum was thawed on ice and centrifuged at 3000×g for 5 min in a 4° C. microcentrifuge. An aliquot of 200 μL of serum per sample was transferred to a new microcentrifuge tube and 750 μl of a Qiazol mixture containing 1.25 μg/mL of MS2 bacteriophage RNA was added to the serum. The tube was mixed and incubated for 5 min followed by the addition of 200 μL chloroform. […]
# 15 μl RNA was reverse transcribed in 75 μl reactions using the miRCURY LNA™ Universal RT microRNA PCR, Polyadenylation and cDNA synthesis kit (Exiqon). cDNA was diluted 50× and assayed in 10 ul PCR reactions according to the protocol for miRCURY LNA™ Universal RT microRNA PCR; each microRNA was assayed once by qPCR on the microRNA Ready-to-Use PCR, Human panel I and panel II. […] The amplification curves were analyzed using the Roche LC software, both for determination of Cp (by the 2nd derivative method) and for melting curve analysis. All data was normalized to the average of assays detected in all samples (average—assay Cp). […]
# [2] = tested on: miR-122; assay: Serum miR-122 levels with or without RBV, genotype 2 and 3 patients that achieved SVR (FIG. 7); type: in vivo, human; conditions: HCV 2 and 3 subjects who achieve SVR on Compound 1/r with Compound 3; presence n=13, absence n=9
# Excerpt: Sample preparation and microRNA real-time PCR. Serum samples were collected at baseline (“Baseline”), day 3 on-treatment (“Day 3”), week 2 on-treatment (“Week 2”), week 10 on-treatment (“Week 10”), and 8 weeks after completing the 12 week regimen (“PT Week 8”) and frozen until analysis. Samples were processed as described in Example 1.
# In HCV 2 and 3 subjects who achieve SVR, miR-122 levels are not affected by the presence (n=13) or absence (n=9) of RBV.
SMILES,Levels of miR-122 after three days of polymerase inhibitor alone [1],effect of presence or absence of RBV on miR-122 levels [2]
"COc1c(-c2ccc3cc(NS(C)(=O)=O)ccc3c2)cc(-n2ccc(=O)[nH]c2=O)cc1C(C)(C)C [Compound 2, N-(6-(3-tert-butyl-5-(2,4-dioxo-3,4-dihydropyrimidin-1(2H)-yl)-2-methoxyphenyl)naphthalen-2-yl)methanesulfonamide]",decreased,
"COc1c(/C=C/c2ccc(NS(C)(=O)=O)cc2)cc(-n2ccc(=O)[nH]c2=O)cc1C(C)(C)C [Compound 4, (E)-N-(4-(3-tert-butyl-5-(2,4-dioxo-3,4-dihydropyrimidin-1(2H)-yl)-2-methoxystyryl)phenyl)methanesulfonamide]",decreased,
"NC(=O)c1ncn([C@@H]2O[C@H](CO)[C@@H](O)[C@H]2O)n1 [RBV, ribavirin]",,not affected
